Measurements as given in patent US11066369B2, “N-(pyridin-2-yl)pyridine-sulfonamide derivatives and their use in the treatment of disease” (Novartis AG, priority 2016, dated 2021).
Structures can show the parent of a compound that is named as a salt.

Key:
delF508-CFTR = target: T1, delF508-CFTR (Homo sapiens, UniProt P13569, DEL508-508); assay: Measurement of delF508-CFTR functional activity in primary human bronchial epithelial cells (HBECs) using Multi-Transepithelial Clamp Circuit (MTECC-24) assay; assay type: cell-based; conditions: primary CF HBECs; for MTECC24 CFHBEC- Amax %: test compound added 24h before assay plus potentiator, relative to reference combination (2 μM corrector + 0.5 μM potentiator); for EC50: test compound added 24h before assay, in the presence of potentiator, mean of at least two replicates, read-out: MTECC24 CFHBEC- EC50
T1 construct: functional activity of the CFTR channel (Chloride ion transport) in patient derived primary human bronchial epithelial cells; host or cells: patient-derived primary human bronchial epithelial cells (delF508-CFTR)
T1 sequence (P13569 with tags, fused parts or gaps DEL508-508): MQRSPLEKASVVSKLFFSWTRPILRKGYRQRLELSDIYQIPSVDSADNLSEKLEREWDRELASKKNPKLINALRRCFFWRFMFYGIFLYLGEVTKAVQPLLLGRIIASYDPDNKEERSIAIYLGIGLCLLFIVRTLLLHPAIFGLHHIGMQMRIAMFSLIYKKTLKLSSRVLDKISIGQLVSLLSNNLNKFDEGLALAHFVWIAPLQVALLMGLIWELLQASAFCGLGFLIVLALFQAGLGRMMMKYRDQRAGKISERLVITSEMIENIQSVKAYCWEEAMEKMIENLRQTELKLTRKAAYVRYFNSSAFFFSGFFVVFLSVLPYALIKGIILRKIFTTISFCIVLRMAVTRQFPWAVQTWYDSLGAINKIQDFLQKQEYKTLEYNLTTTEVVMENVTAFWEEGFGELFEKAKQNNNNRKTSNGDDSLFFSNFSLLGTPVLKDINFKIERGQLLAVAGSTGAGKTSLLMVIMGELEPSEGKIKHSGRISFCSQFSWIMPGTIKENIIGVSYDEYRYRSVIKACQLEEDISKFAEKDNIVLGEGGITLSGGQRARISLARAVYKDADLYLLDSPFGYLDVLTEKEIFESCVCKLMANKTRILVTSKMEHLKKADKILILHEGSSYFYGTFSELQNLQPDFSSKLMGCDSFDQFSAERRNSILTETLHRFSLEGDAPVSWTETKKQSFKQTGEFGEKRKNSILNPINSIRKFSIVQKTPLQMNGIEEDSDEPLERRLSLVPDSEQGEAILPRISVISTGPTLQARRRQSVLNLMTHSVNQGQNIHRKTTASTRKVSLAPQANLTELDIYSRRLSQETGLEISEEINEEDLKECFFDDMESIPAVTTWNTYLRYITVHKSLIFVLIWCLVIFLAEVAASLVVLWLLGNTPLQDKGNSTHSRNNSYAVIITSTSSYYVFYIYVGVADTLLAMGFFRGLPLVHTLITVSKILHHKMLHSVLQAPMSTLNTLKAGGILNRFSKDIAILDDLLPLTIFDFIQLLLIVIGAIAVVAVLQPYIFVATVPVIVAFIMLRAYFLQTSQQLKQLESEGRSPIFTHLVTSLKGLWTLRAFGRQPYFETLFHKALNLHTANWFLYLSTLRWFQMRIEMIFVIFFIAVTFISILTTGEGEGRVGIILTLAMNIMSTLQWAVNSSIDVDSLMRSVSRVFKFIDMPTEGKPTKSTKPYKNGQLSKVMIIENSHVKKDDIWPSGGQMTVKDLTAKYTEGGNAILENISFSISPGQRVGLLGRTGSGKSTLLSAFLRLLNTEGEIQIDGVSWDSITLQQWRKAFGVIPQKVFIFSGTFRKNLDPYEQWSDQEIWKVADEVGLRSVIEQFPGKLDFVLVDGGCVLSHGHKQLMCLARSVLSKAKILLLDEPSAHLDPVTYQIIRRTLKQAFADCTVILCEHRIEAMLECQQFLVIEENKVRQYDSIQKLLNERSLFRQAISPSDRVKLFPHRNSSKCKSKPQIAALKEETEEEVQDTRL
Procedure, shortened: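 Compound tested as 10-point, 1-in-3 concentration response (0.1% or 0.2% DMSO), 24 h basolateral pre-incubation, then re-added to both sides. MTECC-24 measured Ieq in ALI-differentiated primary delF508 bronchial cells after amiloride, forskolin activation, potentiator and INH-172 block; data normalized to DMSO baseline, EC50 fitted.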

[1] = target: T2, horseradish peroxidase (HRP) tagged delF508-CFTR (Homo sapiens, UniProt P13569, DEL508-508); assay: Measurement of delF508-CFTR-HRP surface expression in CFBE41o- cells; assay type: cell-based; conditions: delF508-CFTR-HRP surface expression, CFBE41o- cells; for Emax: read-out: DelF508-CFTR-HRP Amax %; for EC50: read-out: DelF508-CFTR-HRP EC50;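 on DelF508-CFTR-HRP Amax %: percent efficacy relative to reference corrector lumacaftor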
T2 construct: expressed in transfected cells
T2 sequence (P13569 with tags, fused parts or gaps DEL508-508): as above
Procedure, shortened: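 Surface-trafficked delF508-CFTR detected via extracellular HRP tag, read as luminescence from a membrane-impermeant substrate in CFBE41o- cells. Cells pre-induced 48h with 500 ng/mL doxycycline, then exposed 24h at 37° C to a 10-point, 3-fold dilution series from 10 μM (DMSO ≤0.5%). Triplicate dose-responses fitted logistically for EC50 after per-plate normalization; fold change versus reference compound.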

MTECC24 CFHBEC- Amax % (delF508-CFTR) [%] | EC50 (delF508-CFTR) [µM] | Emax [1] [%] | EC50 [1] [µM] | SMILES
82.4 | 0.0096 | 389 | 3.06 | Cc1ccccc1-c1nc(NS(=O)(=O)c2cccc(N3CCN(C)C(=O)C3)n2)ccc1C(F)(F)F [Example 196, 6-(4-methyl-3-oxopiperazin-1-yl)-N-(6-(o-tolyl)-5-(trifluoromethyl)pyridin-2-yl)pyridine-2-sulfonamide]
75.9 | 0.135 | 570 | 2.62 | Cc1ccc(F)cc1-c1nc(NS(=O)(=O)c2cccc(N3CC4CCC3CN4)n2)ccc1C(F)(F)F (stereo not shown) [Example 201, 6-(2,5-diazabicyclo[2.2.2]octan-2-yl)-N-(6-(5-fluoro-2-methylphenyl)-5-(trifluoromethyl)pyridin-2-yl)pyridine-2-sulfonamide Hydrochloride]
90.6 | 0.0057 | 943 | 1.73 | Cc1ccccc1-c1nc(NS(=O)(=O)c2cccc(N3CC(O)(C(F)(F)F)C3)n2)ccc1C(F)(F)F [Example 204, 6-(3-hydroxy-3-(trifluoromethyl)azetidin-1-yl)-N-(6-(o-tolyl)-5-(trifluoromethyl)pyridin-2-yl)pyridine-2-sulfonamide]
66.8 | 0.0018 | 592 | 1.29 | Cc1cccc(C)c1-c1cc(C(F)(F)F)cc(NS(=O)(=O)c2cccc(N3CC(O)C3)n2)n1 [Example 205, N-(6-(2,6-dimethylphenyl)-4-(trifluoromethyl)pyridin-2-yl)-6-(3-hydroxyazetidin-1-yl)pyridine-2-sulfonamide]
88.1 | 0.0052 | 607 | 1.38 | O=S(=O)(Nc1ccc(C(F)(F)F)c(-c2ccccc2C2CC2)n1)c1cccc(N2CC(O)C2)n1 [Example 208, N-(6-(2-cyclopropylphenyl)-5-(trifluoromethyl)pyridin-2-yl)-6-(3-hydroxyazetidin-1-yl)pyridine-2-sulfonamide]
95.6 | 0.139 | 231 | 2.7 | COc1ccc(F)cc1-c1nc(NS(=O)(=O)c2cccc(N3CC(O)C3)n2)ccc1C(F)(F)F [Example 209, N-(6-(5-fluoro-2-methoxyphenyl)-5-(trifluoromethyl)pyridin-2-yl)-6-(3-hydroxyazetidin-1-yl)pyridine-2-sulfonamide]
71.1 | 0.0519 | 256 | 2.03 | O=S(=O)(Nc1ccc(Cl)c(-c2ccc(F)cc2Cl)n1)c1cccc(N2CC(O)C2)n1 [Example 214, N-(5-chloro-6-(2-chloro-4-fluorophenyl)pyridin-2-yl)-6-(3-hydroxyazetidin-1-yl)pyridine-2-sulfonamide]
66.4 | 0.0047 | 303 | 2.1 | Cc1c(F)cccc1-c1nc(NS(=O)(=O)c2cccc(N3CC(C)(O)C3)n2)ccc1C(F)(F)F [Example 215, N-(6-(3-fluoro-2-methylphenyl)-5-(trifluoromethyl)pyridin-2-yl)-6-(3-hydroxy-3-methylazetidin-1-yl)pyridine-2-sulfonamide]
82.1 | 0.0048 | 446 | 1.71 | Cc1c(F)cccc1-c1nc(NS(=O)(=O)c2cccc(N3CC(O)C3)n2)ccc1C(F)(F)F [Example 216, N-(6-(3-fluoro-2-methylphenyl)-5-(trifluoromethyl)pyridin-2-yl)-6-(3-hydroxyazetidin-1-yl)pyridine-2-sulfonamide]
66.3 | 0.038 | 157 | 0.308 | Cc1cc(F)ccc1-c1nc(NS(=O)(=O)c2cccc(N3CC(C)(O)C3)n2)ccc1C(F)(F)F [Example 217, N-(6-(4-fluoro-2-methylphenyl)-5-(trifluoromethyl)pyridin-2-yl)-6-(3-hydroxy-3-methylazetidin-1-yl)pyridine-2-sulfonamide]
59.5 | 0.023 | 465 | 1.75 | Cc1cc(F)ccc1-c1nc(NS(=O)(=O)c2cccc(N3CC(O)C3)n2)ccc1C(F)(F)F [Example 218, N-(6-(4-fluoro-2-methylphenyl)-5-(trifluoromethyl)pyridin-2-yl)-6-(3-hydroxyazetidin-1-yl)pyridine-2-sulfonamide]
119.0 | 0.0111 | 711 | 1.6 | Cc1ccc(F)cc1-c1nc(NS(=O)(=O)c2cccc(N3CC(C)(O)C3)n2)ccc1C(F)(F)F [Example 219, N-(6-(5-fluoro-2-methylphenyl)-5-(trifluoromethyl)pyridin-2-yl)-6-(3-hydroxy-3-methylazetidin-1-yl)pyridine-2-sulfonamide]
58.6 | 0.0032 | 902 | 1.61 | Cc1ccc(F)cc1-c1nc(NS(=O)(=O)c2cccc(N3CC(O)C3)n2)ccc1C(F)(F)F [Example 220, N-(6-(5-fluoro-2-methylphenyl)-5-(trifluoromethyl)pyridin-2-yl)-6-(3-hydroxyazetidin-1-yl)pyridine-2-sulfonamide]
63.5 | 0.007 | 552 | 1.32 | CC1(O)CN(c2cccc(S(=O)(=O)Nc3ccc(C(F)(F)F)c(-c4ccccc4Cl)n3)n2)C1 [Example 221, N-(6-(2-chlorophenyl)-5-(trifluoromethyl)pyridin-2-yl)-6-(3-hydroxy-3-methylazetidin-1-yl)pyridine-2-sulfonamide]

The remaining lines, values behind:

SMILES | MTECC24 CFHBEC- Amax % (delF508-CFTR) [%] | EC50 (delF508-CFTR) [µM] | Emax [1] [%] | EC50 [1] [µM]
Cc1ccccc1-c1nc(NS(=O)(=O)c2cccc(N3CCNCC3)n2)ccc1Cl [Example 195, N-(5-chloro-6-(o-tolyl)pyridin-2-yl)-6-(piperazin-1-yl)pyridine-2-sulfonamide hydrochloride] | 80.0 | 0.464 | 213 | 3.38
Cc1cccc(C)c1-c1nc(NS(=O)(=O)c2cccc(N3CCN(C)CC3=O)n2)ccc1Cl [Example 197, N-(5-chloro-6-(2,6-dimethylphenyl)pyridin-2-yl)-6-(4-methyl-2-oxopiperazin-1-yl)pyridine-2-sulfonamide] | 73.9 | 0.067 | 500 | 3.65
Cc1cccc(C)c1-c1nc(NS(=O)(=O)c2cccc(N3CCn4cc(C(F)(F)F)nc4C3)n2)ccc1Cl [Example 199, N-(5-chloro-6-(2,6-dimethylphenyl)pyridin-2-yl)-6-(2-(trifluoromethyl)-5,6-dihydroimidazo[1,2-a]pyrazin-7(8H)-yl)pyridine-2-sulfonamide] | 87.1 | 0.0383 | 700 | 2.22
Cc1ccccc1-c1nc(NS(=O)(=O)c2cccc(N3C[C@@H]4C[C@H]3CN4)n2)ccc1C(F)(F)F [Example 203, 6-((1S,4S)-2,5-diazabicyclo[2.2.1]heptan-2-yl)-N-(6-(o-tolyl)-5-(trifluoromethyl)pyridin-2-yl)pyridine-2-sulfonamide hydrochloride] | 80.9 | 0.0233 | 298 | 2.98
Cc1ccccc1-c1nc(NS(=O)(=O)c2cccc(N3CC(C)(O)C3)n2)ccc1Br [Example 207, N-(5-bromo-6-(o-tolyl)pyridin-2-yl)-6-(3-hydroxy-3-methylazetidin-1-yl)pyridine-2-sulfonamide] | 78.0 | 0.0194 | 503 | 2.27
Cc1cccc(C)c1-c1nc(NS(=O)(=O)c2cccc(N3CC(C)(O)C3)n2)ccc1Cl [Example 210, N-(5-chloro-6-(2,6-dimethylphenyl)pyridin-2-yl)-6-(3-hydroxy-3-methylazetidin-1-yl)pyridine-2-sulfonamide] | 68.7 | 0.0022 | 507 | 0.716
Cc1cccc(C)c1-c1nc(NS(=O)(=O)c2cccc(N3CC(O)(C4CC4)C3)n2)ccc1Cl [Example 211, N-(5-chloro-6-(2,6-dimethylphenyl)pyridin-2-yl)-6-(3-cyclopropyl-3-hydroxyazetidin-1-yl)pyridine-2-sulfonamide] | 71.6 | 0.0086 |  | 1.76
Cc1ccc(C(F)(F)F)cc1-c1nc(NS(=O)(=O)c2cccc(N3CC(C)(O)C3)n2)ccc1Cl [Example 212, N-(5-chloro-6-(2-methyl-5-(trifluoromethyl)phenyl)pyridin-2-yl)-6-(3-hydroxy-3-methylazetidin-1-yl)pyridine-2-sulfonamide] | 68.0 | 0.082 | 378 | 1.82
CC1(O)CN(c2cccc(S(=O)(=O)Nc3ccc(Cl)c(-c4ccc(F)cc4Cl)n3)n2)C1 [Example 213, N-(5-chloro-6-(2-chloro-4-fluorophenyl)pyridin-2-yl)-6-(3-hydroxy-3-methylazetidin-1-yl)pyridine-2-sulfonamide] | 78.0 | 0.0478 | 224 | 2.49
